Measured values: patent EP2292587A1, “PHARMACEUTICAL COMPOSITION FOR INHIBITING THE TRANSCRIPTION FACTOR INDUCIBLE BY HYPOXIA, MODULATORS OF PATHOLOGICAL PROCESSES OF ANGIOGENESIS, ONCOGENESIS, INFLAMMATION, APOPTOSIS, AND CELLULAR THERAPY” (Fundacion De La Comunidad Valenciana Centro De …, priority 2008, dated 2009)

Assays:
ATR = assay: activation kinetics of ATR (Western blot), HCT116/p53+/+; assay type: cell-based, human; conditions: 0.5 µM, after 1 hour
Description: To determine the degree of involvement of p53 in the possible effects caused by FM19G11, a HCT116 colon cancer cell line with expression of p53 and the same HCT116 line in which p53 was inactivated by homologous recombination were used (Bunz, F, Dutriaux, A, Lengauer, C, Waldman, T, Zhou, S, Brown, JP et al., (1998) Requirement for p53 and p21 to sustain G2 arrest after DNA damage. Science 282: 1497-501; Bunz, F, Hwang, PM, Torrance, C, Waldman, T, Zhang, Y, Dillehay, L et al., (1999) Disruption of p53 in human cancer cells alters the responses to therapeutic agents. J Clin Invest 104: 263-9.). The HCT116/p53^+/+ and HCT116/p53^-/- cells were exposed to FM19G11 (0.5 µM) at different times, the phosphorylation (activation) pattern of the ATR protein and of p53 which can be phosphorylated by ATR (Tibbetts, RS, Brumbaugh, KM, Williams, JM, Sarkaria, JN, Cliby, WA, Shieh, SY et al., (1999) A role for ATR in the DNA damage-induced phosphorylation of p53. Genes Dev 13: 152-7.), in p53-proficient HCT116 cells, as well as ATR in p53-deficient cells being analyzed (Figure 23). […] This quick activation of ATR coincides with that of p53 in HCT116/p53^+/+ cells after 1 hour of treatment with FM19G11 (0.5 µM), but the activation of p53 remains virtually on the expression of cells without drug, for the different times analyzed.

HCT116/p53-/- = assay: clonicity assay, HCT116/p53-/-; assay type: cell-based, human
Description: Clonicity assays were conducted to determine the toxicity of FM19G11 in p53-proficient (HT29 and HCT116/p53^+/+) and p53-deficient (HCT116/p53^-/-) tumor cells. Once the HT-29, HCT116/p53^+/+ and HCT116/p53^-/- cells were adhered to the culture plate, they were stimulated with increasing concentrations of FM19G11 (0.5, 1, 5, 10, 20, 50 µM) for 72 hours. After 10 days of stimulation, the number of colonies formed in the plates of treated and untreated cells was determined.
Results of the clonicity assays of HT29 human colon cancer cells, HCT116 cells treated with FM19G11 were monitored up to 10 after the treatment (Figure 28). The IC50 was determined by extrapolating the percentage with the concentration. FM19G11 was used at concentrations: 0.5, 1, 5, 10, 50, 100, 200 µM

epSPCs = assay: proliferation (ATP, CellTiter-Glo) and neurosphere formation of epSPCs; assay type: cell-based, rat; conditions: for rates of proliferation (ATP): 500 nM
Description: The accumulation of ATP, a metabolite directly related to the increase of metabolic activity and therefore with the proliferative activity, was determined with the commercial CellTiter-Glo® luminescent cell viability kit (Promega, Madison, WI).

PHD3 and VEGF = assay: qPCR of PHD3 and VEGF in primary culture of epNSCs; assay type: cell-based, rat; conditions: 500 nM, hypoxia (1% O2), 6 to 24 hours
Description: Adult Wistar rats of between 2 to 3 months of age were used (the animals were handled following the mode of action which complies with section 2.1 (acceptable methods of euthanasia) of the document prepared for the DGXI of the European Commission regarding the protection of animals used for experimentation and other scientific purposes (No. L358, ISSN 0378-6978) and after the approval of the protocols by the Committee for Animal Care and Wellbeing of the Centro de Investigación Principe Felipe, Valencia, SPAIN). Once the animals were sacrificed, the dorsal part of the spinal cord was dissected and the tissue was maintained, at 4°C, in washing medium (DPBS-glucose) for its processing. To reduce the percentage of connective tissue cells the meninges as well as the most superficial blood vessels were removed. […]
Total RNA was isolated using the commercial kit RNAeasy (Qiagen) and following the manufacturer's instructions. […] The quantitative polymerase chain reaction (qPCR) was carried out using Taqman probes and primers designed by Applied Biosystem for rVEGF (Ref Rn00582935_m1), rPHD3 (Ref Rn00571341_m1) and rGAPDH (Ref Rn01775763_g1). […] The expression levels of VEGF and PHD3 were expressed as the increase of Ct with respect to the expression levels of GAPDH (constitutive expression gene): Ct (ΔCt)=Ct (VEGF or PHD3)-Ct (GAPDH). […]

**Q.** With `Cc1ccc(C(=O)COC(=O)c2cccc(NC(=O)c3ccc([N+](=O)[O-])cc3[N+](=O)[O-])c2)cc1` [FM19G11, 2-oxo-2-(p-tolyl)ethyl 3-((2,4-dinitro)benzamido)benzoate] as the compound, how does the “phosphorylation of ATR” value (ATR) read?
**A.** The value was “quick increase”.

**Q.** And the “increase of resistance by loss of function of p53 (ratio of IC50 values in HCT116)” value (HCT116/p53-/-; HCT116/p53-/- versus HCT116/p53+/+)?
**A.** The value was 4.71 times.

**Q.** And the IC50 (HCT116/p53-/-; Homo sapiens, HCT-116, stimulated 72 hours, colonies counted after 10 days, read-out: survival IC50)?
**A.** Its IC50 is 16.5 µM.

**Q.** What about the “rates of proliferation (ATP)” value (epSPCs; 48 hours, ~20% O2) of the same compound?
**A.** Its value is “increases the rates of proliferation”.

**Q.** What about the “rates of proliferation (ATP)” value (epSPCs; hypoxic conditions (1% O2)) of the same compound?
**A.** Its value is “not reproduced”.

**Q.** What about the formation of neurospheres (epSPCs; normoxic conditions (20% O2)) of the same compound?
**A.** Its formation of neurospheres is “favors the formation of neurospheres”.

**Q.** And the “increase of both PHD3 and VEGF (mRNA)” value (PHD3 and VEGF)?
**A.** Its value is “significantly inhibited”.
